According to patent US10759813B2, “Neprilysin inhibitors” (THERAVANCE BIOPHARMA R&D IP, LLC, priority 2010, dated 2020):

Target: human neprilysin (EC 3.4.24.11; NEP) (Homo sapiens (Human), UniProt P08473)
Test: In vitro enzyme inhibition assay at human NEP (fluorogenic peptide substrate)
Assay type: biochemical
Settings: pKi values at human NEP, recombinant human NEP
Procedure: In Vitro Assays for the Quantitation of Inhibitor Potencies at Human and Rat NEP, and Human ACE
The inhibitory activities of compounds at human and rat neprilysin (EC 3.4.24.11; NEP) and human angiotensin converting enzyme (ACE) were determined using in vitro assays as described below.
Recombinant human NEP and recombinant human ACE were obtained commercially (R&D Systems, Minneapolis, Minn., catalog numbers 1182-ZN and 929-ZN, respectively). The fluorogenic peptide substrate Mca-D-Arg-Arg-Leu-Dap-(Dnp)-OH (Medeiros et al. (1997) Braz. J. Med. Biol. Res. 30:1157-62; Anaspec, San Jose, Calif.) and Abz-Phe-Arg-Lys(Dnp)-Pro-OH (Araujo et al. (2000) Biochemistry 39:8519-8525; Bachem, Torrance, Calif.) were used in the NEP and ACE assays respectively.
The assays were performed in 384-well white opaque plates at 37° C. using the fluorogenic peptide substrates at a concentration of 10 μM in Assay Buffer (NEP: 50 mM HEPES, pH 7.5, 100 mM NaCl, 0.01% polyethylene glycol sorbitan monolaurate (Tween-20), 10 μM ZnSO4; ACE: 50 mM HEPES, pH 7.5, 100 mM NaCl, 0.01% Tween-20, 1 μM ZnSO4).
Test compounds were assayed over the range of concentrations from 10 μM to pM. Test compounds were added to the enzymes and incubated for 30 minute at 37° C. prior to initiating the reaction by the addition of substrate. Reactions were terminated after 20 minutes of incubation at 37° C. by the addition of glacial acetic acid to a final concentration of 3.6% (v/v).
Plates were read on a fluorometer with excitation and emission wavelengths set to 320 nm and 405 nm, respectively. Inhibition constants were obtained by nonlinear regression of the data using the equation (GraphPad Software, Inc., San Diego, Calif.): v=v0/[1+(I/K′)] where v is the reaction rate, v0 is the uninhibited reaction rate, I is the inhibitor concentration and K′ is the apparent inhibition constant.
Compounds of the invention were tested in this assay and found to have pKi values at human NEP as follows.

Sequence of human neprilysin (EC 3.4.24.11; NEP) (P08473 52-750): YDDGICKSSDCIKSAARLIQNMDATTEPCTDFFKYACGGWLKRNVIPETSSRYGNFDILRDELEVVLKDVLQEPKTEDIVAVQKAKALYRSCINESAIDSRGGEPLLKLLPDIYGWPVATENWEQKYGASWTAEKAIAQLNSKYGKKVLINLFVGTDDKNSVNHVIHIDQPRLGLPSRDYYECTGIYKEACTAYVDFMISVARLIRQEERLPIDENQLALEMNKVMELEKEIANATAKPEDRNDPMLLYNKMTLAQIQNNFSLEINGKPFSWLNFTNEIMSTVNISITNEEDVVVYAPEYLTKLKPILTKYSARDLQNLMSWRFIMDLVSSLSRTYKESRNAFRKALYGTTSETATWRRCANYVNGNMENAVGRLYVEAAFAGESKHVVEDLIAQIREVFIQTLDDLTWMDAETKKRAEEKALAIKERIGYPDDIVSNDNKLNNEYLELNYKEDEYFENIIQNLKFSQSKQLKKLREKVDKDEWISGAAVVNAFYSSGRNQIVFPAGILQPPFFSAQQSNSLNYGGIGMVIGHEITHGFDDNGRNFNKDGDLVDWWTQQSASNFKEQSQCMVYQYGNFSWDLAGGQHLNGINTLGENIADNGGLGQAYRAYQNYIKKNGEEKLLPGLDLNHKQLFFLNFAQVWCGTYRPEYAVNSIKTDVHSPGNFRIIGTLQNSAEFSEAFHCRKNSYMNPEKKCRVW

Structure (SMILES)	Ki [nM]	pKi
O=C(N[C@H](Cc1ccc(-c2ccccc2)cc1)C[C@@H](O)C(=O)O)c1cc(-c2cc(Cl)ccc2Cl)no1 [Example 12-11, (2R,4R)-5-Biphenyl-4-yl-4-{[3-(2,5-dichlorophenyl)-isoxazole-5-carbonyl]-amino}-2-hydroxy-pentanoic acid]	–	≥9.0
COc1ccccc1-c1cc(C(=O)N[C@H](Cc2ccc(-c3ccccc3)cc2)C[C@@H](O)C(=O)O)on1 [Example 12-13, (2R,4R)-5-Biphenyl-4-yl-2-hydroxy-4-{[3-(2-methoxy-phenyl)-isoxazole-5-carbonyl]-amino}-pentanoic acid]	–	≥9.0
O=C(N[C@H](Cc1ccc(-c2cc(Cl)ccc2F)cc1)C[C@@H](O)C(=O)O)c1ccc2nnn(O)c2c1 [Example 22, (2R,4R)-5-(5′-Chloro-2′-fluorobiphenyl-4-yl)-2-hydroxy-4-[(3-hydroxy-3H-benzotriazole-5-carbonyl)-amino]-pentanoic Acid]	–	≥9.0
O=C(N[C@H](Cc1ccc(-c2ccccc2)cc1)C[C@@H](O)C(=O)O)c1cc(-c2cccc(F)c2)no1 [Example 12-8, (2R,4R)-5-Biphenyl-4-yl-4-{[3-(3-fluorophenyl)-isoxazole-5-carbonyl]-amino}-2-hydroxy-pentanoic acid]	–	≥9.0
CC(C)(O)c1cc(C(=O)N[C@H](Cc2ccc(-c3ccccc3)cc2)C[C@@H](O)C(=O)O)n[nH]1 [Example 8-B, (2R,4R)-5-Biphenyl-4-yl-2-hydroxy-4-{[5-(1-hydroxy-1-methylethyl)-1H-pyrazole-3-carbonyl]amino}pentanoic acid]	–	≥9.0
CC(C)(c1ccc(-c2ccccc2)cc1)[C@H](C[C@@H](O)C(=O)O)NC(=O)c1cc(C(=O)O)n[nH]1 [Example 24, 5-[(S)-2-Biphenyl-4-yl-1-((R)-2-carboxy-2-hydroxy-ethyl)-2-methyl-propylcarbamoyl]-1H-pyrazole-3-carboxylic Acid]	–	≥9.0
O=C(N[C@H](Cc1ccc(-c2ccccc2)cc1)C[C@@H](O)C(=O)O)c1cnc(-c2ccccc2)o1 [Example 12-23, (2R,4R)-5-Biphenyl-4-yl-2-hydroxy-4-[(2-phenyl-oxazole-5-carbonyl)-amino]-pentanoic acid]	1.26 to 10	–
COc1ccccc1-c1cc(C(=O)N[C@H](Cc2ccc(-c3ccccc3)cc2)C[C@@H](O)C(=O)O)no1 [Example 12-15, (2R,4R)-5-Biphenyl-4-yl-2-hydroxy-4-{[5-(2-methoxy-phenyl)-isoxazole-3-carbonyl]-amino}-pentanoic acid]	1.26 to 10	–

More lines, now with the values ahead:

Ki [nM]	pKi	Structure (SMILES)
12.6 to 100	–	O=C(N[C@H](Cc1ccc(-c2ccccc2)cc1)C[C@@H](O)C(=O)O)c1cc2nn1CCOc1ccccc1-2 [Example 16-2, (2R,4R)-5-Biphenyl-4-yl-2-hydroxy-4-[(8-oxa-11,14-diaza-tricyclo[9.2.1.02,7]tetradeca-1(14),2,4,6,12-pentaene-12-carbonyl)-amino]-pentanoic acid]
1.26 to 10	–	O=C(N[C@H](Cc1ccc(-c2ccccc2)cc1)CC(O)C(=O)O)c1cc(-c2cnccn2)[nH]n1 (stereo partly drawn) [Example 15-22, (R)-5-Biphenyl-4-yl-2-hydroxy-4-[(5-pyrazin-2-yl-1H-pyrazole-3-carbonyl)amino]-pentanoic acid]
–	≥9.0	O=C(N[C@H](Cc1ccc(-c2cccc(Cl)c2)cc1)C[C@@H](O)C(=O)O)c1nn(-c2cccc(Cl)c2)c(=O)[nH]1 [Example 18-42, (2R,4R)-5-(3′-Chloro-biphenyl-4-yl)-4-{[1-(3-chloro-phenyl)-5-oxo-4,5-dihydro-1H-[1,2,4]triazole-3-carbonyl]-amino}-2-hydroxy-pentanoic acid]
–	≥9.0	O=C(N[C@H](Cc1ccc(-c2cccc(Cl)c2)cc1)C[C@@H](O)C(=O)O)c1nn(-c2ccccc2Cl)c(=O)[nH]1 [Example 18-43, (2R,4R)-5-(3′-Chloro-biphenyl-4-yl)-4-{[1-(2-chloro-phenyl)-5-oxo-4,5-dihydro-1H-[1,2,4]triazole-3-carbonyl]-amino}-2-hydroxy-pentanoic acid]
1.26 to 10	–	O=C(N[C@H](Cc1ccc(-c2cccc(Cl)c2)cc1)C[C@@H](O)C(=O)O)c1ccc(=O)n(-c2ccccc2)n1 [Example 18-49, (2R,4R)-5-(3′-Chlorobiphenyl-4-yl)-2-hydroxy-4-[(6-oxo-1-phenyl-1,6-dihydro-pyridazine-3-carbonyl)-amino]-pentanoic acid]
1.26 to 10	–	O=C(O)Cc1cc(C(=O)N[C@H](Cc2ccc(-c3ccccc3)cc2)C[C@@H](O)C(=O)O)n[nH]1 [Example 15-2, (2R,4R)-5-Biphenyl-4-yl-4-[(5-carboxymethyl-1H-pyrazole-3-carbonyl)amino]-2-hydroxy-pentanoic acid]
1.26 to 10	–	O=C(N[C@H](Cc1ccc(-c2ccccc2)cc1)CC(O)C(=O)O)c1cc(-c2ccc(Cl)cc2)[nH]n1 (stereo partly drawn) [Example 15-40, (R)-5-Biphenyl-4-yl-4-{[5-(4-chlorophenyl)-1H-pyrazole-3-carbonyl]amino}-2-hydroxy-pentanoic acid]
–	≥9.0	O=C(N[C@H](Cc1ccc(-c2cccc(Cl)c2)cc1)C[C@@H](O)C(=O)O)c1cc(-c2cnccn2)n[nH]1 [Example 18-19, (2R,4R)-5-(3′-Chlorobiphenyl-4-yl)-2-hydroxy-4-[(5-pyrazin-2-yl-2H-pyrazole-3-carbonyl)-amino]-pentanoic acid]
–	≥9.0	COc1ccccc1-c1ccc(C[C@H](C[C@@H](O)C(=O)O)NC(=O)c2cn(O)nn2)cc1 [Example 19-17, (2R,4R)-2-Hydroxy-4-[(1-hydroxy-1H-[1,2,3]triazole-4-carbonyl)-amino]-5-(2′-methoxy-biphenyl-4-yl)-pentanoic acid]
–	≥9.0	O=C(N[C@H](Cc1ccc(-c2cccc(Cl)c2)cc1)C[C@@H](O)C(=O)O)c1cc(-c2ccccc2O)on1 [Example 18-16, (2R,4R)-5-(3′-Chlorobiphenyl-4-yl)-2-hydroxy-4-{[5-(2-hydroxyphenyl)-isoxazole-3-carbonyl]-amino}-pentanoic acid]
1.26 to 10	–	C[C@@H](O)c1cc(C(=O)N[C@H](Cc2ccc(-c3ccccc3)cc2)C[C@@H](O)C(=O)O)[nH]n1 [Example 15-110, (2R,4R)-5-Biphenyl-4-yl-2-hydroxy-4-{[5-((R)-1-hydroxyethyl)-2H-pyrazole-3-carbonyl]amino}pentanoic acid]
–	≥9.0	Cn1nc(C(=O)N[C@H](Cc2ccc(-c3cccc(Cl)c3)cc2)C[C@@H](O)C(=O)O)cc1O [Example 18-35, (2R,4R)-5-(3′-Chloro-biphenyl-4-yl)-2-hydroxy-4-[(5-hydroxy-1-methyl-1H-pyrazole-3-carbonyl)-amino]-pentanoic acid]
12.6 to 100	–	CC(C)c1cc(C(=O)N[C@H](Cc2ccc(-c3ccccc3)cc2)CC(O)C(=O)O)[nH]n1 (stereo partly drawn) [Example 15-73, (R)-5-Biphenyl-4-yl-2-hydroxy-4-[(5-isopropyl-2H-pyrazole-3-carbonyl)amino]-pentanoic acid]
12.6 to 100	–	CC(C)CN(C)C(=O)c1cc(C(=O)N[C@H](Cc2ccc(-c3ccccc3)cc2)C[C@H](O)C(=O)O)[nH]n1 [Example 15-65, (2S,4R)-5-Biphenyl-4-yl-2-hydroxy-4-{[5-(isobutylmethyl-carbamoyl)-2H-pyrazole-3-carbonyl]amino}-pentanoic acid]
–	≥9.0	C/C(=N\O)c1cc(C(=O)N[C@H](Cc2ccc(-c3ccccc3)cc2)C[C@@H](O)C(=O)O)[nH]n1 [Example 15-111, (2R,4R)-5-Biphenyl-4-yl-2-hydroxy-4-[(5-{1-[(E)-hydroxyimino]-ethyl}-2H-pyrazole-3-carbonyl)-amino]-pentanoic acid]
1.26 to 10	–	O=C(N[C@H](Cc1ccc(-c2ccccc2)cc1)CC(O)C(=O)O)c1cc(C(=O)O)n(Cc2cccc(Cl)c2)n1 (stereo partly drawn) [Example 15-7, 5-((R)-1-Biphenyl-4-ylmethyl-3-carboxy-3-hydroxypropylcarbamoyl)-2-(3-chlorobenzyl)-2H-pyrazole-3-carboxylic acid]
1.26 to 10	–	O=C(NCCO)c1cc(C(=O)N[C@H](Cc2ccc(-c3ccccc3)cc2)CC(O)C(=O)O)[nH]n1 (stereo partly drawn) [Example 15-70, (R)-5-Biphenyl-4-yl-2-hydroxy-4-{[5-(2-hydroxy-ethylcarbamoyl)-2H-pyrazole-3-carbonyl]-amino}-pentanoic acid]
–	≥9.0	O=C(N[C@H](Cc1ccc(-c2cccc(Cl)c2)cc1)C[C@@H](O)C(=O)O)c1cc(O)n(-c2ccccc2F)n1 [Example 18-38, (2R,4R)-5-(3′-Chloro-biphenyl-4-yl)-4-{[1-(2-fluoro-phenyl)-5-hydroxy-1H-pyrazole-3-carbonyl]-amino}-2-hydroxy-pentanoic acid]
